Measured values taken from PubChem BioAssay AID248 (DTP/NCI, 2004).
Several values for one entry are separate records, joined by “and”; a condition that tells them apart may be missing. Equal entries are not always repeated. Toxic doses and inconclusive results are not listed. Rule as the data show it: active = T/C of 150% or more; inactive = T/C below 125%.

Test system: L1210 leukemia ip in BDF1 mice, survival T/C
Assay: NCI In Vivo Anticancer Drug Screen. Data for tumor model L1210 Leukemia (intraperitoneal) in B6D2F1 (BDF1) mice
Details: endpoint: mean survival time, higher = longer survival
Summary of the method: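 Read-out is survival time, reported as the treated-group measurement over the vehicle-control measurement.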

[1] = dose: 100.0 mg/kg/injection, schedule: Q04DX003 (ip), vehicle: saline with Tween-80
[2] = dose: 200.0 mg/kg/injection, schedule: Q04DX003 (ip), vehicle: saline with Tween-80
[3] = dose: 400.0 mg/kg/injection, schedule: Q04DX003 (ip), vehicle: saline with Tween-80
[4] = dose: 100.0 mg/kg/injection, schedule: Q01DX009 (ip), vehicle: saline with Tween-80
[5] = dose: 100.0 mg/kg/injection, schedule: Q01DX009 (ip), vehicle: Klucel (hydroxypropylcellulose) (HPC)
[6] = dose: 100.0 mg/kg/injection, schedule: Q04DX003 (ip), vehicle: Klucel (hydroxypropylcellulose) (HPC)
[7] = dose: 200.0 mg/kg/injection, schedule: Q01DX009 (ip), vehicle: Klucel (hydroxypropylcellulose) (HPC)
[8] = dose: 200.0 mg/kg/injection, schedule: Q04DX003 (ip), vehicle: Klucel (hydroxypropylcellulose) (HPC)
[9] = dose: 400.0 mg/kg/injection, schedule: Q01DX009 (ip), vehicle: Klucel (hydroxypropylcellulose) (HPC)
[10] = dose: 400.0 mg/kg/injection, schedule: Q04DX003 (ip), vehicle: Klucel (hydroxypropylcellulose) (HPC)
[11] = dose: 100.0 mg/kg/injection, schedule: Q01DX001 (ip), vehicle: carboxymethylcellulose (CMC)
[12] = dose: 200.0 mg/kg/injection, schedule: Q01DX001 (ip), vehicle: carboxymethylcellulose (CMC)
[13] = dose: 400.0 mg/kg/injection, schedule: Q01DX001 (ip), vehicle: carboxymethylcellulose (CMC)

Measured: T/C

CN(CCN(C)Cc1ccccc1)Cc1ccccc1
inactive: dose: 50.0 mg/kg/injection, schedule: Q01DX009 (ip), vehicle: saline 98 % of control | dose: 100.0 mg/kg/injection, schedule: Q01DX009 (ip), vehicle: saline 101 % of control | dose: 100.0 mg/kg/injection, schedule: Q04DX003 (ip), vehicle: saline 103 % of control | dose: 200.0 mg/kg/injection, schedule: Q04DX003 (ip), vehicle: saline 98 % of control

CCOc1nc(N)nc2c1-c1ccccc1CC2
inactive: [1] 97 % of control | [2] 97 % of control | [3] 90 % of control

CC(C)=NNC(=O)c1ccccc1
inactive: dose: 12.5 mg/kg/injection, schedule: Q04DX003 (ip), vehicle: saline with Tween-80 94 % of control | dose: 50.0 mg/kg/injection, schedule: Q01DX009 (ip), vehicle: saline with Tween-80 110 % of control | dose: 50.0 mg/kg/injection, schedule: Q04DX003 (ip), vehicle: saline with Tween-80 96 % of control | [4] 113 % of control | [1] 108 % of control and 110 % of control | [2] 124 % of control | [3] 96 % of control

Oc1cc(-c2ccccc2)c(-c2ccccc2)c(-c2ccccc2)c1-c1ccccc1
inactive: dose: 100.0 mg/kg/injection, schedule: Q01DX001 (ip), vehicle: saline with Tween-80 100 % of control | dose: 200.0 mg/kg/injection, schedule: Q01DX001 (ip), vehicle: saline with Tween-80 90 % of control | dose: 400.0 mg/kg/injection, schedule: Q01DX001 (ip), vehicle: saline with Tween-80 88 % of control

O=C(O)c1ccc(NCc2cccc([N+](=O)[O-])c2)cc1
inactive: dose: 100.0 mg/kg/injection, schedule: Q01DX001 (ip), vehicle: Klucel (hydroxypropylcellulose) (HPC) 100 % of control | [5] 96 % of control | dose: 100.0 mg/kg/injection, schedule: Q04DX002 (ip), vehicle: Klucel (hydroxypropylcellulose) (HPC) 100 % of control and 105 % of control | [6] 99 % of control | dose: 200.0 mg/kg/injection, schedule: Q01DX001 (ip), vehicle: Klucel (hydroxypropylcellulose) (HPC) 104 % of control | [7] 106 % of control and 86 % of control | dose: 200.0 mg/kg/injection, schedule: Q04DX002 (ip), vehicle: Klucel (hydroxypropylcellulose) (HPC) 101 % of control and 102 % of control | [8] 108 % of control | dose: 400.0 mg/kg/injection, schedule: Q01DX001 (ip), vehicle: Klucel (hydroxypropylcellulose) (HPC) 100 % of control | [9] 96 % of control and 98 % of control | dose: 400.0 mg/kg/injection, schedule: Q04DX002 (ip), vehicle: Klucel (hydroxypropylcellulose) (HPC) 99 % of control and 103 % of control | [10] 98 % of control

COc1cccc(/C=N\NC(=O)CCCC(=O)N/N=C/c2cccc(OC)c2)c1
inactive: dose: 50.0 mg/kg/injection, schedule: Q01DX001 (ip), vehicle: saline 87 % of control | dose: 100.0 mg/kg/injection, schedule: Q01DX001 (ip), vehicle: saline 90 % of control | dose: 400.0 mg/kg/injection, schedule: Q01DX001 (ip), vehicle: saline 103 % of control

CC(=O)OCCN(C)C
inactive: dose: 75.0 mg/kg/injection, schedule: Q01DX009 (ip), vehicle: saline 104 % of control | dose: 100.0 mg/kg/injection, schedule: Q04DX002 (ip), vehicle: saline 100 % of control | dose: 150.0 mg/kg/injection, schedule: Q01DX009 (ip), vehicle: saline 101 % of control | dose: 200.0 mg/kg/injection, schedule: Q04DX002 (ip), vehicle: saline 110 % of control | dose: 300.0 mg/kg/injection, schedule: Q01DX009 (ip), vehicle: saline 101 % of control | dose: 400.0 mg/kg/injection, schedule: Q04DX002 (ip), vehicle: saline 113 % of control

CCCCCCCCCCCCCCCCS(=O)(=O)N/N=C/c1ccc(Cl)c([N+](=O)[O-])c1
inactive: [11] 98 % of control | [12] 107 % of control | [13] 103 % of control

COc1cc(C2c3cc4c(cc3C(O)C(CO)C2CO)OCO4)cc(OC)c1OC (stereo not drawn)
inactive: dose: 8.75 mg/kg/injection, schedule: Q01DX Z (ip), vehicle: carboxymethylcellulose (CMC) 100 % of control | dose: 11.5 mg/kg/injection, schedule: Q01DX Z (ip), vehicle: carboxymethylcellulose (CMC) 108 % of control | dose: 17.0 mg/kg/injection, schedule: Q01DX Z (ip), vehicle: carboxymethylcellulose (CMC) 113 % of control | dose: 17.5 mg/kg/injection, schedule: Q01DX Z (ip), vehicle: carboxymethylcellulose (CMC) 114 % of control | dose: 26.0 mg/kg/injection, schedule: Q01DX Z (ip), vehicle: carboxymethylcellulose (CMC) 120 % of control | dose: 35.0 mg/kg/injection, schedule: Q01DX Z (ip), vehicle: carboxymethylcellulose (CMC) 106 % of control | dose: 37.5 mg/kg/injection, schedule: Q04DX003 (ip), vehicle: saline 98 % of control | dose: 50.0 mg/kg/injection, schedule: Q01DX001 (ip), vehicle: carboxymethylcellulose (CMC) 95 % of control | dose: 70.0 mg/kg/injection, schedule: Q01DX Z (ip), vehicle: carboxymethylcellulose (CMC) 98 % of control | dose: 75.0 mg/kg/injection, schedule: Q04DX003 (ip), vehicle: saline 118 % of control | [11] 104 % of control | dose: 140.0 mg/kg/injection, schedule: Q01DX Z (ip), vehicle: carboxymethylcellulose (CMC) 100 % of control and 121 % of control | dose: 150.0 mg/kg/injection, schedule: Q04DX003 (ip), vehicle: saline 110 % of control | [12] 101 % of control | dose: 280.0 mg/kg/injection, schedule: Q01DX Z (ip), vehicle: carboxymethylcellulose (CMC) 105 % of control | [13] 98 % of control

CCOc1cccc(Cc2cn(CCC#N)c(=O)[nH]c2=O)c1
inactive: [6] 108 % of control | [8] 89 % of control | [10] 89 % of control

OC1CSCCc2ccccc21 (stereo not drawn)
inactive: dose: 100.0 mg/kg/injection, schedule: Q01DX001 (ip), vehicle: other 100 % of control | dose: 200.0 mg/kg/injection, schedule: Q01DX001 (ip), vehicle: other 98 % of control | dose: 400.0 mg/kg/injection, schedule: Q01DX001 (ip), vehicle: other 114 % of control

O=C(O)C(Cc1cnc[nH]1)Nc1nc(NC(Cc2cnc[nH]2)C(=O)O)[nH]c(=O)n1 (stereo not drawn)
inactive: dose: 6.25 mg/kg/injection, schedule: Q01DX009 (ip), vehicle: Klucel (hydroxypropylcellulose) (HPC) 101 % of control | dose: 12.5 mg/kg/injection, schedule: Q01DX009 (ip), vehicle: Klucel (hydroxypropylcellulose) (HPC) 108 % of control | dose: 25.0 mg/kg/injection, schedule: Q01DX009 (ip), vehicle: Klucel (hydroxypropylcellulose) (HPC) 115 % of control

COC(=O)/C=C/NC(=O)c1ccccc1C(=O)OC
inactive: [5] 98 % of control | [6] 94 % of control | [7] 96 % of control | [8] 103 % of control | [9] 109 % of control | [10] 100 % of control

CC(C)c1cc(C(C)C)n2nc(N)nc2n1
inactive: [4] 96 % of control | dose: 200.0 mg/kg/injection, schedule: Q01DX009 (ip), vehicle: saline with Tween-80 102 % of control | dose: 400.0 mg/kg/injection, schedule: Q01DX009 (ip), vehicle: saline with Tween-80 105 % of control

COc1ccc(-c2coc3cc(O)ccc3c2=O)cc1
inactive: [1] 96 % of control | [2] 96 % of control | [3] 96 % of control
